Consider 21 molecules from US20050032873A1, “3-Amino chroman and 2-amino tetralin derivatives” (Wyeth, priority 2003, published 2005).

In assay [1] the target is T1, 5-HT1A receptor (Homo sapiens, UniProt P08908).
T1 sequence (P08908 1-422): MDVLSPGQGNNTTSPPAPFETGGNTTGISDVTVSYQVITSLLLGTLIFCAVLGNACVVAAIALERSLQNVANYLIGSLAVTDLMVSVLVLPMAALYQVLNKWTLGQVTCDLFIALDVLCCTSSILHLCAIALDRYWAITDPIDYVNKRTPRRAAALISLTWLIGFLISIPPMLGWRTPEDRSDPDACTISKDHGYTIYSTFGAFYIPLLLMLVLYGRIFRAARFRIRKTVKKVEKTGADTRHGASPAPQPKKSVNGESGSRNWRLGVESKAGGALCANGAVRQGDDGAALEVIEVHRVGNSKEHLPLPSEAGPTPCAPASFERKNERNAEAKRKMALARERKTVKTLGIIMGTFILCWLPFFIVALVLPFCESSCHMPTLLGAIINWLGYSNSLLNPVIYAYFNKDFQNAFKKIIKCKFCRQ
In words: 5-HT1A receptor affinity: displacement of [3H] 8-OH-DPAT. In kind it is binding. The settings on record: for Ki: displacement of [3H] 8-OH-DPAT, CHO cells stably transfected with human 5-HT1A receptors, read-out: 5-HT1A Receptor Affinity Ki; for inhibition at 1 µM: read-out: 5-HT1A Receptor Affinity, % @ 1 μM. On the set-up: expressed in transfected cells.

Assay [2] deals with T1, 5-HT1A receptor. The assay is described as follows: cAMP accumulation assay, 5-HT1A function. In kind it is cell-based. The settings on record: for IC50: cells marked IC50 (antagonist), read-out: 5-HT1A Function cAMP IC50; for Emax / 5-HT1A Function cAMP (Emax): in brackets after EC50 or IC50; for Emax: read-out: 5-HT1A Function cAMP (Emax); for EC50: cells marked EC50 (agonist). A general note: Changes in cAMP serve as a functional read-out for many G protein-coupled receptors.

Assay [3] addresses T2, cloned human 5-HT1A receptors (Homo sapiens, UniProt P08908).
T2 construct: expressed in transfected cells
T2 sequence (P08908 1-422): T1 sequence (P08908 1-422)
The assay is described as follows: 35S-GTPγS binding assay, 5-HT1A function. The class given is biochemical. The conditions noted are these: for IC50: antagonist potency, reversal of 8-OH-DPAT, read-out: 5-HT1A Function GTPγS IC50; for EC50: agonist potency. Background: Binding of GTPγS marks nucleotide exchange on a G protein.

The target in assay [4] is T3, serotonin transporter (Rattus norvegicus, UniProt P31652).
T3 construct: displace ^3H-paroxetine from male rat cortical membranes; from tissue; host or cells: male rat cortical membranes
In words: 5-HT transporter affinity: displacement of 3H-paroxetine from male rat cortical membranes. In kind it is binding. The conditions noted are these: displacement of 3H-paroxetine, male rat cortical membranes.

The mark [5] stands for this setting: maximum inhibitory effect, in brackets after IC50, read-out: 5-HT1A Function GTPγS (Imax).
Setting [6] is: read-out: 5-HT Transporter Affinity Ki.
Where [7] appears, read: maximum inhibitory effect, in brackets after IC50.
Setting [8] is: maximum stimulatory effect, in brackets after EC50, read-out: 5-HT1A Function GTPγS (Emax).

SMILES strings stand for the structures. Like-named read-outs stand apart in the source and are kept apart here.

As a reminder, the Ki is a dissociation constant, usually derived from enzyme kinetics or from competition with a known ligand. The IC50 is the point on the concentration scale where inhibition reaches its midpoint. In general, EC50 refers to the concentration giving half of the maximal effect. Read a low EC50 as higher potency in that assay.

T3 sequence (P31652 whole entry): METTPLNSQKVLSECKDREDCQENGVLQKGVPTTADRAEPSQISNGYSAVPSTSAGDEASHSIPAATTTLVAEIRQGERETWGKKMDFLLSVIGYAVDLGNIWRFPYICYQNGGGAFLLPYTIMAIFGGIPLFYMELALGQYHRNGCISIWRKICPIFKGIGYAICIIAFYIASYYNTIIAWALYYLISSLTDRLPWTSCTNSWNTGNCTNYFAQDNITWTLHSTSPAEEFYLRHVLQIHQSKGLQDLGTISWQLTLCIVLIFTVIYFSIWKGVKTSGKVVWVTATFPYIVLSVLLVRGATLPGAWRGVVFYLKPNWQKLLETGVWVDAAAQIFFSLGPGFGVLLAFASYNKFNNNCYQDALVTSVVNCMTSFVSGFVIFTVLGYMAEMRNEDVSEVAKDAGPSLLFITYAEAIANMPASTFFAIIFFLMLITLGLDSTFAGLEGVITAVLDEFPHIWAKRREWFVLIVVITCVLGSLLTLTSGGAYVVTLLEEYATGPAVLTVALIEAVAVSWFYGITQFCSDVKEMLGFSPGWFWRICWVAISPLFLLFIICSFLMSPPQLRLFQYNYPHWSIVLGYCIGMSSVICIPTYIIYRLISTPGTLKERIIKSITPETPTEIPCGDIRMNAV

On to `NC(=O)c1ccc(F)c2c1CC(N(CCCc1c[nH]c3ccc(Cl)cc13)CC1CC1)CO2` (centres unmarked) [Compound 118, 3-[[3-(5-chloro-1H-indol-3-yl)propyl](cyclopropylmethyl)amino]-8-fluorochromane-5-carboxamide], for which the Ki in assay [1] is 1.49 nM; in assay [4] (setting [6]), 41.4 nM. Further, the IC50 in assay [2] is 168 nM; in assay [3], 134 nM. The Emax was 0% in assay [2] and 69% in assay [3] (setting [5]).

Take `NC(=O)c1ccc(F)c2c1C[C@@H](N(CC1CC1)CC1CCc3[nH]c4ccc(F)cc4c3C1)CO2` (single isomer, unassigned; (+)) [Compound 178b]: the figures for the Ki in assay [1] and in assay [4] (setting [6]) were 9.48 nM and 116 nM, respectively. Further, the IC50 in assay [2] was determined as 224 nM; in assay [3], 611 nM. The 5-HT1A Function cAMP (Emax) in assay [2] is 0%. For the same molecule, in assay [3] (setting [7]), the 5-HT1A Function GTPγS (Imax) stood at 99%.

For the molecule `CCN(CCCc1c[nH]c2ccc(F)cc12)C1COc2c(F)ccc(C(N)=O)c2C1` (single isomer, unassigned; (-)) [Compound 3a, (−)-3-{ethyl[3-(5-fluoro-1H-indol-3-yl)propyl]amino}-8-fluoro-3,4-dihydro-2H-chromene-5-carboxamide], the results for the inhibitory constant (Ki) in assay [1] and in assay [4] (setting [6]) were 35.1 nM and 5 nM, respectively. For the same molecule, the values for the IC50 in assay [2] and in assay [3] were 135 nM and 1300 nM, respectively. In assay [2], this molecule registered a 5-HT1A Function cAMP (Emax) of 0%. This molecule also came in with a 5-HT1A Function GTPγS (Imax) in assay [3] (setting [7]) of 79%.

Regarding `CNC(=O)c1ccc(F)c2c1CC(N(CCCc1c[nH]c3ccc(F)cc13)CC1CC1)CO2` (centres unmarked) [Compound 91, 3-{(cyclopropylmethyl)[3-(5-fluoro-1H-indol-3-yl)propyl]amino}-8-fluoro-N-methylchromane-5-carboxamide], the Ki amounted to 2.28 nM in assay [1] and 3.33 nM in assay [4] (setting [6]). Also, the IC50 in assay [2] came to 88.3 nM; in assay [3] it was 191 nM. Besides, the Emax in assay [2] is 0%; in assay [3] (setting [5]), 77%.

As to `NC(=O)c1ccc(F)c2c1CC(N(CCCCn1ccc3cc(F)ccc31)CC1CC1)CO2` (centres unmarked) [Compound 199, 3-{(Cyclopropylmethyl)[4-(5-fluoro-1H-indol-1-yl)butyl]amino}-8-fluorochromane-5-carboxamide], the Ki in assay [1] was determined as 5.44 nM. Moreover, in assay [2], the response was half-maximal at 74.7 nM (EC50) and the Emax turned out to be 72%. Besides, the Ki in assay [4] (setting [6]) worked out at 77 nM.

For `CC(C)CN(CCCc1c[nH]c2ccc(F)cc12)C1COc2cccc(C(N)=O)c2C1` (centres unmarked) [Compound 151, 3-[[3-(5-fluoro-1H-indol-3-yl)propyl](isobutyl)amino]chromane-5-carboxamide], the Ki in assay [1] amounted to 102 nM. In assay [2], the EC50 was 168 nM and the Emax amounted to 94%. Further, the Ki in assay [4] (setting [6]) amounted to 1190 nM.

For the molecule `CCCN(CCCCc1coc2c(OC)cccc12)[C@H]1COc2c(F)ccc(C(N)=O)c2C1` [Compound 172, (3R)-8-fluoro-3-[[4-(7-methoxy-1-benzofuran-3-yl)butyl](propyl)amino]chromane-5-carboxamide], the Ki in assay [1] turned out to be 497 nM; in assay [4] (setting [6]) it was 516 nM. The IC50 in assay [2] came to 379 nM. In addition, the Emax in assay [2] worked out at 0%.

On to `NC(=O)c1ccc(F)c2c1C[C@@H](N(CCCc1c[nH]c3c(F)cc(F)cc13)CC1CC1)CO2` [Compound 147, (3R)-3-{(cyclopropylmethyl)[3-(5,7-difluoro-1H-indol-3-yl)propyl]amino}-8-fluorochromane-5-carboxamide], for which, in assay [1], the Ki was 3.04 nM. Moreover, in assay [2], the IC50 is 505 nM and the Emax was 0%. Besides, in assay [4] (setting [6]), the Ki turned out to be 10.7 nM.

As to `CCN(CCCc1c[nH]c2ccc(OC)cc12)C1COc2c(F)ccc(C(N)=O)c2C1` (centres unmarked) [Compound 105, 3-{ethyl[3-(5-methoxy-1H-indol-3-yl)propyl]amino}-8-fluorochromane-5-carboxamide], the Ki in assay [1] came to 24.3 nM. In addition, in assay [2], the response was half-maximal at 96.7 nM (EC50) and the Emax was 81%. The Ki in assay [4] (setting [6]) was found to be 236 nM.

With `CCN(CCCCn1ccc2c(F)cccc21)C1COc2c(F)ccc(C(N)=O)c2C1` (centres unmarked) [Compound 201, 3-{Ethyl[4-(4-fluoro-1H-indol-1-yl)butyl]amino}-8-fluorochromane-5-carboxamide], the Ki in assay [1] is 42.7 nM; in assay [4] (setting [6]), 95 nM. It took 210 nM to reach a half-maximal effect in assay [2] (EC50). Also, the Emax in assay [2] stood at 92%.

For `CCN(CCCCn1ccc2ccc(F)cc21)C1COc2c(F)ccc(C(N)=O)c2C1` (centres unmarked) [Compound 193, 3-{Ethyl[4-(6-fluoro-1H-indol-1-yl)butyl]amino}-8-fluorochromane-5-carboxamide], the Ki in assay [1] was 21.6 nM. In assay [2], a half-maximal effect (EC50) was put at 117 nM and the Emax came to 89%. For the same molecule, the Ki in assay [4] (setting [6]) stood at 15.6 nM.

For the molecule `N#Cc1ccc2[nH]cc(CCCN(C3CCC3)[C@@H]3COc4c(F)ccc(C(N)=O)c4C3)c2c1` [Compound 97a, (3S)-3-[[3-(5-cyano-1H-indol-3-yl)propyl](cyclobutyl)amino]-8-fluorochromane-5-carboxamide], the Ki in assay [1] amounted to 258 nM. In addition, in assay [2], the IC50 amounted to 581 nM and the Emax amounted to 0%. In assay [4] (setting [6]), the Ki amounted to 9 nM.

For the molecule `CCCN(CCCCn1ccc2ccc(F)cc21)C1COc2c(F)ccc(C(N)=O)c2C1` (centres unmarked) [Compound 194, 8-Fluoro-3-[[4-(6-fluoro-1H-indol-1-yl)butyl](propyl)amino]chromane-5-carboxamide], the Ki in assay [1] is 10.7 nM. For the same molecule, in assay [2], the EC50 was found to be 74.1 nM and the Emax was found to be 81%. Further, in assay [4] (setting [6]), the Ki was 70 nM.

With `CCCN(CCCCn1ccc2c(F)cccc21)C1COc2c(F)ccc(C(N)=O)c2C1` (centres unmarked) [Compound 202, 8-Fluoro-3-[[4-(4-fluoro-1H-indol-1-yl)butyl](propyl)amino]chromane-5-carboxamide], in assay [1], the Ki is 14 nM. Further, in assay [2], a half-maximal response (EC50) required 137 nM and the Emax was 78%. In assay [4] (setting [6]), the Ki was determined as 210 nM.

With `CC(Cc1c[nH]c2ccc(F)cc12)CN(CC1CC1)[C@H]1COc2c(F)ccc(C(N)=O)c2C1` (single isomer, unassigned) [Compound 155b], the Ki in assay [1] amounted to 128 nM. Moreover, in assay [2], the IC50 turned out to be 846 nM and the 5-HT1A Function cAMP (Emax) is 0%. For the same molecule, the Ki in assay [4] (setting [6]) amounted to 144 nM.

On to `CCCCN(CCCc1coc2c(OC)cccc12)C1COc2c(F)ccc(C(N)=O)c2C1` (centres unmarked) [Compound 166, 3-{butyl[3-(7-methoxy-1-benzofuran-3-yl)propyl]amino}-8-fluorochromane-5-carboxamide], for which the Ki in assay [1] was 14.2 nM. Besides, in assay [2], the IC50 came to 301 nM and the Emax is 0%. Also, in assay [4] (setting [6]), the Ki was found to be 498 nM.

Take `COc1cccc2c1CC(N[C@H]1CC[C@@H](c3c[nH]c4ccc(C#N)cc43)CC1)CO2` (relative stereo) [Compound 180a, 3-[(1,4-cis)-4-(5-Methoxy-chroman-3-ylamino)-cyclohexyl]-1H-indole-5-carbonitrile]: in assay [1], the inhibition at 1 µM worked out at 19%. The molecule further came in with an EC50 in assay [3] of 4230 nM. Also, the Emax in assay [3] (setting [8]) is 100%. Besides, the Ki in assay [4] (5-HT Transporter Affinity Ki (nM)) turned out to be 13 nM.

Take `CCCN(CCCCn1ccc2cc(F)ccc21)C1COc2c(F)ccc(C(N)=O)c2C1` (centres unmarked) [Compound 198, 8-Fluoro-3-[[4-(5-fluoro-1H-indol-1-yl)butyl](propyl)amino]chromane-5-carboxamide]: the values for the Ki in assay [1] and in assay [4] (setting [6]) were 6.54 nM and 114 nM, respectively. The EC50 in assay [2] came out at 67.7 nM. The Emax in assay [2] came out at 82%.

Regarding `CCCCCN(CCCc1c[nH]c2ccc(F)cc12)C1COc2c(F)ccc(C(N)=O)c2C1` (centres unmarked) [Compound 71, 8-fluoro-3-[[3-(5-fluoro-1H-indol-3-yl)propyl](pentyl)amino]chromane-5-carboxamide], the inhibition at 1 µM in assay [1] is 44%. Further, in assay [3], the IC50 was 8000 nM. Also, the Emax in assay [3] (setting [5]) came out at 13%. The Ki in assay [4] (setting [6]) is 212 nM.

Turning to `CCNC(=O)c1cccc2c1CC(N(CCCc1c[nH]c3c(F)cc(F)cc13)C1CCC1)CO2` (centres unmarked) [Compound 139, 3-{cyclobutyl[3-(5,7-difluoro-1H-indol-3-yl)propyl]amino}-N-ethylchromane-5-carboxamide], the Ki in assay [1] was 4.83 nM; in assay [4] (setting [6]), 3.9 nM. A half-maximal effect in assay [3] (EC50) was put at 180 nM. The Emax in assay [3] (setting [8]) stood at 81%.

Turning to `COc1cccc2c1CC(N[C@H]1CC[C@@H](c3c[nH]c4ccc(F)cc43)CC1)CO2` (relative stereo) [Compound 181a, cis-N-[4-(5-fluoro-1H-indol-3-yl)cyclohexyl]-5-methoxychroman-3-amine], in assay [1], the inhibition at 1 µM was 37%. Moreover, the midpoint of the response in assay [3], the EC50, lay at 40000 nM. Further, the Emax in assay [3] (setting [8]) came out at 79.4%. In addition, in assay [4] (setting [6]), the Ki was 26 nM.
